Columns and labels:
BRD9 = molecular target: T1, BRD9 (Homo sapiens, UniProt Q9H8M2); test: BRD9 HiBiT degradation assay in 293T.166 (HEK293T.166) cells; assay type: cell-based; set-up: endogenously expressing BRD9 with HiBiT fusion tag via CRISPR; host or cells: HEK293T.166 (293T.166, BRD9-HiBiT HEK293, LgBiT by lentivirus); conditions: 293T.166 cells, 2.0 hours; read-out: HiBiT-Degradation 293T.166 BRD9 2.0 hours (DC50)
T1 sequence (Q9H8M2 1-597): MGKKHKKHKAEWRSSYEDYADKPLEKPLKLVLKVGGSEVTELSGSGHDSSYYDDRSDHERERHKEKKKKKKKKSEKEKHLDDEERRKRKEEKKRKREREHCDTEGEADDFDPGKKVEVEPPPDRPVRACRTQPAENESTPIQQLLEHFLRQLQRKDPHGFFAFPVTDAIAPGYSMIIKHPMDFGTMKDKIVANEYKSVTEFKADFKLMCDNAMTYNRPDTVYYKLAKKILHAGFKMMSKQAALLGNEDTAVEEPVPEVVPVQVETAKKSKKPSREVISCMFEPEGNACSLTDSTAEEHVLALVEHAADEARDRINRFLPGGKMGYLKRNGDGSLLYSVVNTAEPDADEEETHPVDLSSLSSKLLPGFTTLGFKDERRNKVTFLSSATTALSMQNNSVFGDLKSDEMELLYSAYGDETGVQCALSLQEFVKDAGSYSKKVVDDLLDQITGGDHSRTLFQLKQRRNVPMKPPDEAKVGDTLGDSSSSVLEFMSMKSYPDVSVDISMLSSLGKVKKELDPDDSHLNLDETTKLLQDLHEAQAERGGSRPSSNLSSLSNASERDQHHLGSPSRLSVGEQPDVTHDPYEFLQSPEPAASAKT
Experimental: Selected compounds were tested in a BRD9 degradation assay using the HiBit Method.
Dulbecco's modified Eagle medium (DMEM) without phenol red and fetal bovine serum (FBS) were purchased from Gibco (Grand Island, NY, USA). Nano-Glo® HiBiT Lytic Assay System was purchased from Promega (Madison, WI, USA). 293T.166 (BRD9-HiBiT) cell line, endogenously expressing BRD9 with HiBiT fusion tag via CRISPR and ectopically expressing LgBiT tag, was purchased from Promega (Madison, WI, USA). 293T.167 (BRD7-HiBiT) cell line, endogenously expressing BRD7 with HiBiT fusion tag via CRISPR and ectopically expressing LgBiT tag, was purchased from Promega (Madison, WI, USA). 293T.92 (BRD4-HiBiT) cell line, endogenously expressing BRD4 with HiBiT fusion tag via CRISPR and ectopically expressing LgBiT tag, was generated in-house. Cell culture flasks and 384-well microplates were acquired from VWR (Radnor, PA, USA).
BRD9 degradation was determined based on quantification of luminescent signal using Nano-Glo® HiBiT Lytic Assay kit. Test compounds were added to the 384-well plate from a top concentration of 10 μM with 11 points, half log titration in duplicates. 293T.166 cells were added into 384-well plates at a cell density of 10,000 cells per well. The plates were kept at 37° C. with 5% CO2 for 2 hours. BRD7 and BRD4 degradation was similarly determined with 293T.167 cells and 293T.92 cells, respectively. The cells treated in the absence of the test compound were the negative control and the cells without Nano-Glo® HiBiT Lytic reagent were the positive control. After 2-hour incubation, Nano-Glo® HiBiT Lytic Assay reagents were added to the cells. Luminescence was acquired on EnVision® Multilabel Reader (Catalog No. 2104-0010, Perkin Elmer Inc., Dumfries, VA, USA).
This assay evaluates the degradation of BRD9 induced by treatment with Compound 1 or Compound 2 as measured by luminescence using Nano-Glo® HiBiT Lytic Assay System in HEK293 cells CRISPR-edited to endogenously express HiBiT tagged BRD9 and exogenously express LgBiT protein.
Nano-Glo® HiBiT Lytic Assay System was purchased from Promega (Catalog No. N3050, Madison, WI, USA). BRD9-HiBiT HEK293 cells were purchased from Promega (Catalog No. CS302348, Madison, WI, USA). The cells were maintained in Dulbecco's modified Eagle medium (DMEM) without phenol red (Catalog No. 12430112, ThermoFisher Scientific, Waltham, MA, USA) supplemented with 10% fetal bovine serum (FBS) (Catalog No. 16000-044, Gibco, Grand Island, NY, USA) at 37° C. in an atmosphere of 5% CO2 in air. The HiBiT polypeptide tag was introduced into the C-terminus of the endogenous BRD9 locus by CRISPR-Cas9 and the LgBiT protein was introduced via Lentiviral infection to produce the modified HEK293T.166 cell line. The HiBiT polypeptide and LgBiT protein allow reconstitution of NanoBiT enzyme in the cells. The Nano-Glo® HiBiT Lytic Substrate was then added and activated by the NanoBiT enzyme following cell lysis to produce a luminescent signal that is directly proportional to the amount of HiBiT-tagged BRD9.
The HEK293T.166 cells were routinely sub-cultured to maintain cell density between 30-80% confluence, not to exceed 20 passages. Cells were washed with PBS pH 7.4 (Catalog No. 10010049, ThermoFisher Scientific, Waltham, MA, USA), trypsinized for 5 minutes at 37° C., and resuspended in fresh growth media without phenol red. An aliquot was diluted 2× with Trypan Blue solution 0.4% (Catalog No. 15250061, ThermoFisher Scientific, Waltham, MA, USA) and cell count determined. Cell concentration was adjusted with growth media without phenol red to 3.3×10^5 cells/mL.
Compound 1 or Compound 2 was prepared by dissolving neat compounds in DMSO (Catalog No. D8418, Sigma-Aldrich, Inc., St. Louis, MO, USA) to generate 10 mM stock solution and stored at −20° C. […]

[1] = Hygroscopicity by DVS at 25° C.; assay type: physicochemical
Experimental: Hygroscopicity of Form A and Form N was investigated by DVS at 25° C. […] Form A converted to Form K after the DVS test. Form K is a metastable hydrate. It reverted back to Form A after exposure to ambient condition.
Hygroscopicity of the free base Pattern A* and the urea cocrystal Form P were evaluated by DVS at 25° C.

[2] = Solubility study in aqueous media at 37° C.; conditions: for Solubility: target 10 mg/5 mL, LOQ: 50 μg/mL
[3] = pH 4.5, 50 mM acetate buffer, 2 h
[4] = pH 4.5, 50 mM acetate buffer, 24 h

**Q.** With `COc1cc(-c2cn(C)c(=O)c(C)c2C)cc(OC)c1CN1CC[C@@H](N2CCN(c3ccc(N[C@H]4CCC(=O)NC4=O)cc3F)CC2)C(F)(F)C1` [Compound 3] as the compound, how does the DC50 (BRD9) read?
**A.** < 100 nM

**Q.** Which “XRPD after DVS test” value [1] does the source give for `COc1cc(-c2cn(C)c(=O)c(C)c2C)cc(OC)c1CN1CC[C@H](N2CCN(c3ccc(N[C@H]4CCC(=O)NC4=O)cc3F)CC2)C(F)(F)C1.NC(N)=O` [Urea cocrystal Pattern P] here?
**A.** No form change

**Q.** What about the “water uptake from 40% RH to 90% RH” value ([1]; DVS) of the same compound?
**A.** <90% RH, 1.6% water

**Q.** What about the “water uptake from 40% RH to 95% RH” value ([1]; DVS) of the same compound?
**A.** 3.1% water uptake from

**Q.** What about the “1st desorp. (%)” value ([1]; DVS, 0% RH) of the same compound?
**A.** 0.0%

**Q.** What about the “2nd sorp. (%)” value ([1]; DVS, 0% RH) of the same compound?
**A.** 0.0%

**Q.** And the “1st desorp. (%)” value ([1]; DVS, 10% RH)?
**A.** 2.2%

**Q.** And the “2nd sorp. (%)” value ([1]; DVS, 10% RH)?
**A.** 1.2%

**Q.** What about the “1st desorp. (%)” value ([1]; DVS, 20% RH) of the same compound?
**A.** 3.1%

**Q.** And the “2nd sorp. (%)” value ([1]; DVS, 20% RH)?
**A.** 2.8%

**Q.** And the “1st desorp. (%)” value ([1]; DVS, 30% RH)?
**A.** 3.7%

**Q.** And the “2nd sorp. (%)” value ([1]; DVS, 30% RH)?
**A.** 3.3%

**Q.** What about the “1st desorp. (%)” value ([1]; DVS, 40% RH) of the same compound?
**A.** 4.2%

**Q.** And the “1st sorp. (%)” value ([1]; DVS, 40% RH)?
**A.** 4.0%

**Q.** What about the “2nd desorp. (%)” value ([1]; DVS, 40% RH) of the same compound?
**A.** 4.2%

**Q.** What about the “2nd sorp. (%)” value ([1]; DVS, 40% RH) of the same compound?
**A.** 3.7%

**Q.** What about the “1st desorp. (%)” value ([1]; DVS, 50% RH) of the same compound?
**A.** 4.5%

**Q.** And the “1st sorp. (%)” value ([1]; DVS, 50% RH)?
**A.** 4.2%

**Q.** And the “2nd desorp. (%)” value ([1]; DVS, 50% RH)?
**A.** 4.5%

**Q.** What about the “2nd sorp. (%)” value ([1]; DVS, 50% RH) of the same compound?
**A.** 4.1%

**Q.** What about the “1st desorp. (%)” value ([1]; DVS, 60% RH) of the same compound?
**A.** 4.7%

**Q.** And the “1st sorp. (%)” value ([1]; DVS, 60% RH)?
**A.** 4.4%

**Q.** What about the “2nd desorp. (%)” value ([1]; DVS, 60% RH) of the same compound?
**A.** 4.7%

**Q.** And the “2nd sorp. (%)” value ([1]; DVS, 60% RH)?
**A.** 4.4%

**Q.** And the “1st desorp. (%)” value ([1]; DVS, 70% RH)?
**A.** 5.0%

**Q.** And the “1st sorp. (%)” value ([1]; DVS, 70% RH)?
**A.** 4.7%

**Q.** And the “2nd desorp. (%)” value ([1]; DVS, 70% RH)?
**A.** 5.0%

**Q.** And the “2nd sorp. (%)” value ([1]; DVS, 70% RH)?
**A.** 4.8%

**Q.** And the “1st desorp. (%)” value ([1]; DVS, 80% RH)?
**A.** 5.2%

**Q.** And the “1st sorp. (%)” value ([1]; DVS, 80% RH)?
**A.** 5.1%

**Q.** And the “2nd desorp. (%)” value ([1]; DVS, 80% RH)?
**A.** 5.3%

**Q.** What about the “2nd sorp. (%)” value ([1]; DVS, 80% RH) of the same compound?
**A.** 5.1%

**Q.** And the “1st desorp. (%)” value ([1]; DVS, 90% RH)?
**A.** 5.8%

**Q.** And the “1st sorp. (%)” value ([1]; DVS, 90% RH)?
**A.** 5.6%

**Q.** What about the “2nd desorp. (%)” value ([1]; DVS, 90% RH) of the same compound?
**A.** 5.8%

**Q.** And the “2nd sorp. (%)” value ([1]; DVS, 90% RH)?
**A.** 5.6%

**Q.** And the “1st desorp. (%)” value ([1]; DVS, 95% RH)?
**A.** 7.1%

**Q.** And the “1st sorp. (%)” value ([1]; DVS, 95% RH)?
**A.** 7.1%

**Q.** And the “2nd desorp. (%)” value ([1]; DVS, 95% RH)?
**A.** 7.3%

**Q.** And the “2nd sorp. (%)” value ([1]; DVS, 95% RH)?
**A.** 7.3%

**Q.** And the pH ([2]; FaSSIF-v1, pH 6.5, 2 h)?
**A.** pH: 6.5

**Q.** And the Solubility ([2]; FaSSIF-v1, pH 6.5, 2 h)?
**A.** <LOQ

**Q.** What about the pH ([2]; FaSSIF-v1, pH 6.5, 24 h) of the same compound?
**A.** pH: 6.5

**Q.** What about the Solubility ([2]; FaSSIF-v1, pH 6.5, 24 h) of the same compound?
**A.** <LOQ

**Q.** And the pH ([2]; FeSSIF-v1, pH 5.0, 2 h)?
**A.** pH: 5.0

**Q.** And the Solubility ([2]; FeSSIF-v1, pH 5.0, 2 h)?
**A.** 280 µg/mL

**Q.** And the pH ([2]; FeSSIF-v1, pH 5.0, 24 h)?
**A.** pH: 4.9

**Q.** And the Solubility ([2]; FeSSIF-v1, pH 5.0, 24 h)?
**A.** 340 µg/mL

**Q.** And the pH ([2]; SGF, pH 1.8, 2 h)?
**A.** pH: 2.4

**Q.** And the Solubility ([2]; SGF, pH 1.8, 2 h)?
**A.** >2000 µg/mL

**Q.** What about the pH ([2]; SGF, pH 1.8, 24 h) of the same compound?
**A.** pH: 2.4

**Q.** And the Solubility ([2]; SGF, pH 1.8, 24 h)?
**A.** >2000 µg/mL

**Q.** What about the pH ([2]; pH 1.0 (0.1N HCl), 2 h) of the same compound?
**A.** pH: 1.0

**Q.** And the Solubility ([2]; pH 1.0 (0.1N HCl), 2 h)?
**A.** >2000 µg/mL

**Q.** And the pH ([2]; pH 1.0 (0.1N HCl), 24 h)?
**A.** pH: 1.0

**Q.** And the Solubility ([2]; pH 1.0 (0.1N HCl), 24 h)?
**A.** >2000 µg/mL

**Q.** What about the pH [2, 3] of the same compound?
**A.** pH: 4.6

**Q.** What about the Solubility [2, 3] of the same compound?
**A.** 240 µg/mL

**Q.** And the pH [2, 4]?
**A.** pH: 4.5

**Q.** And the Solubility [2, 4]?
**A.** 140 µg/mL

**Q.** For `COc1cc(-c2cn(C)c(=O)c(C)c2C)cc(OC)c1CN1CC[C@@H](N2CCN(c3ccc(N[C@@H]4CCC(=O)NC4=O)cc3F)CC2)C(F)(F)C1` [Compound 4], which DC50 (BRD9) is on record?
**A.** < 100 nM

**Q.** With `COc1cc(-c2cn(C)c(=O)c(C)c2C)cc(OC)c1CN1CCC(N2CCN(c3ccc(NC4CCC(=O)NC4=O)cc3F)CC2)C(F)(F)C1` (centres unmarked) [Compound 5] as the compound, how does the DC50 (BRD9) read?
**A.** < 100 nM

From patent publication US20240245677A1, “SELECTED COMPOUNDS FOR TARGETED DEGRADATION OF BRD9” (C4 THERAPEUTICS, INC., priority 2021, published 2024)
